Laboratory results: US10059688B2, “Protein tyrosine kinase modulators and methods of use” (BETTA PHARMACEUTICALS CO., LTD., priority 2013, dated 2018)

Tests used:
[1] = tested on: A549 (EGFR WT) NSCLC cells; assay: Cell proliferation assay (MTS cell viability); type: cell-based; settings: Homo sapiens, 72 h; A549 cells, 3 days of exposure, MTS
[2] = tested on: H1975 (EGFR L858R/T790M) NSCLC cells; assay: Cell proliferation assay (MTS cell viability); type: cell-based; settings: Homo sapiens, NCI-H1975, 72 h; H1975 cells, 3 days of exposure, MTS
[3] = tested on: HCC827 (EGFR Del) NSCLC cells; assay: Cell proliferation assay (MTS cell viability); type: cell-based; settings: Homo sapiens, 72 h; HCC827 cells, 3 days of exposure, MTS
Description: Effects of test compounds on in vitro proliferation were measured by MTS cell viability assay.
Prepare test compounds in each well with a final medium volume of 200 μl;
Incubate for 3 days of exposure;
Prepare reagents following the instructions in the Cell Proliferation Assay kit (Promega);
Change to serum-free medium with a final volume of 100 l/well. Prepare a set of wells with medium only for background subtraction;
Add 20 μl MTS solution containing PMS to each well (final concentration of MTS will be 0.33 mg/ml);
Incubate 1 to 4 hours at 37° C. in a humidified, 5% CO2 atmosphere.
Record absorbance at 490 nm using VICTOR™ X5 plate reader (PerkinElmer).
All experimental points were set up in three wells and all experiments were repeated at least three times.

[4] = molecular target: EGFR (L858R) (h) (Homo sapiens (Human), UniProt P00533, L858R); assay: Kinase assay, single dose inhibition (Millipore, 33P-ATP filter binding); type: biochemical; settings: 0.1 μM test compound, 10 μM ATP; remaining activity relative to DMSO control = 100%
[5] = molecular target: EGFR (T790M, L858R) (h) (Homo sapiens (Human), UniProt P00533, L858R/T790M); assay: as above; type: biochemical; settings: 0.1 μM test compound, 10 μM ATP; remaining activity relative to DMSO control = 100%
Description: (§1) Assay conditions included 10 μM ATP and 100 nM test compounds.
(§2) All reactions are initiated by the addition of the MgATP mix. After incubation for 40 minutes at room temperature, the reaction is stopped by the addition of 3% phosphoric acid solution. 10 μL of the reaction is then spotted onto a P30 filtermat and washed three times for 5 minutes in 75 mM phosphoric acid and once in methanol prior to drying and scintillation counting. This assay is performed by Millipore. The experiment is carried out in duplicate. The value for the control sample (DMSO) was set to 100%, and the values for the compound-treated samples were expressed as activity relative to the control sample.

[6] = molecular target: EGFR (T790M) (h) (Homo sapiens (Human), UniProt P00533, T790M); assay: as above; type: biochemical; settings: 0.1 μM test compound, 10 μM ATP; remaining activity relative to DMSO control = 100%
Description: as §1, §2

[7] = molecular target: ALK (h) (Homo sapiens (Human), UniProt Q9UM73); assay: as above; type: biochemical; settings: 0.1 μM test compound, 10 μM ATP, remaining activity relative to DMSO control = 100%
ALK (h), sequence (Q9UM73 19-1620): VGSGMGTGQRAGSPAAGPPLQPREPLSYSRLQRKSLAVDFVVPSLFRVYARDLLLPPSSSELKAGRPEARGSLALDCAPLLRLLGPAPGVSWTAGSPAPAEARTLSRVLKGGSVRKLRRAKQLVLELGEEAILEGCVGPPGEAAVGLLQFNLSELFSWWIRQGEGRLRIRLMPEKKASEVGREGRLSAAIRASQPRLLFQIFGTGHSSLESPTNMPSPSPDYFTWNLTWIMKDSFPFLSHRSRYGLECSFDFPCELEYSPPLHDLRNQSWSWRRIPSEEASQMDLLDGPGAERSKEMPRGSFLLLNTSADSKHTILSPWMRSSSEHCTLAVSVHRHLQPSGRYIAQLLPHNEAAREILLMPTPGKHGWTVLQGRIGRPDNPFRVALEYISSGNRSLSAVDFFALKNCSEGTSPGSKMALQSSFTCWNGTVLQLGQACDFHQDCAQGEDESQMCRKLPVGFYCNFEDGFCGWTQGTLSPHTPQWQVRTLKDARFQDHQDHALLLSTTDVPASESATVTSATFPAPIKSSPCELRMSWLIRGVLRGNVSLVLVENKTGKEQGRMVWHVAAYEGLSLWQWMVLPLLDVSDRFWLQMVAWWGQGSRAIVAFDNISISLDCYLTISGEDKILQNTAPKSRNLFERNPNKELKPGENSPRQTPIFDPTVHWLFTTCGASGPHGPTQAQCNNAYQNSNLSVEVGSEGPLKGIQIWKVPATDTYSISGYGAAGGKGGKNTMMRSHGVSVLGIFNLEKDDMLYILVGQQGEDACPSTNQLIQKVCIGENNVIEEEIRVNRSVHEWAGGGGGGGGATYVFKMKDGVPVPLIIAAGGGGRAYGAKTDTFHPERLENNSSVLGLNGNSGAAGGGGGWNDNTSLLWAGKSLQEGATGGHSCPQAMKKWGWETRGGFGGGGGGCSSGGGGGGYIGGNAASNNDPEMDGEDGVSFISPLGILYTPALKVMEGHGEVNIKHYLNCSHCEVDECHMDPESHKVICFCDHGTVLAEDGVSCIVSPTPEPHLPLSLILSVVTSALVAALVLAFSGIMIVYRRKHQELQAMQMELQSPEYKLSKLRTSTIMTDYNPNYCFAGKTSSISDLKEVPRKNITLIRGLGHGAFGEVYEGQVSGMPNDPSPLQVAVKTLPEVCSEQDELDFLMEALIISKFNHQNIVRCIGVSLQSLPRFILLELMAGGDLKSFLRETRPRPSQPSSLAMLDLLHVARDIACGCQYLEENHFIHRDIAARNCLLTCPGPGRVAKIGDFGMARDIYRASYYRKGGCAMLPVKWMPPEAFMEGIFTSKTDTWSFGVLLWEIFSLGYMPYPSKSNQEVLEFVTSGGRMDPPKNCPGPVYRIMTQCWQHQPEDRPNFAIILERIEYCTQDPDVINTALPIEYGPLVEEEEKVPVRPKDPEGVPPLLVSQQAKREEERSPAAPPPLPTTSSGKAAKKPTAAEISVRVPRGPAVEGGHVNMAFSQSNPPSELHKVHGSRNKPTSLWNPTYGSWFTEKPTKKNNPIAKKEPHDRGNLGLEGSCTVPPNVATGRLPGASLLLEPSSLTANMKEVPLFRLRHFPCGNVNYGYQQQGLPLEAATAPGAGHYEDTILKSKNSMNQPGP
Description: as §1, §2

[8] = molecular target: EGFR (h) (Homo sapiens (Human), UniProt P00533); assay: as above; type: biochemical; settings: 0.1 μM test compound, 10 μM ATP; remaining activity relative to DMSO control = 100%
Description: as §1, §2

## COc1cc(N2CCC(N(C)C)CC2)ccc1Nc1ncc(Cl)c(Nc2ccccc2C(=O)C(=O)NO)n1 [Example 3, 2-(2-(5-chloro-2-(4-(4-(dimethylamino)piperidin-1-yl)-2-methoxyphenylamino)pyrimidin-4-ylamino)phenyl)-N-hydroxy-2-oxoacetamide]
[1]
  IC50: > 3000 nM
[2]
  IC50: 840 nM
[3]
  IC50: 940 nM

## COc1cc(Nc2ncc(Cl)c(Nc3ccccc3C(=O)C(=O)N(C)C)n2)ccc1N1CCN(C(C)=O)CC1 [Example 94, 2-(2-(2-(4-(4-acetylpiperazin-1-yl)-3-methoxyphenylamino)-5-chloropyrimidin-4-ylamino)phenyl)-N,N-dimethyl-2-oxoacetamide]
[4]
  Activity (control) % EGFR (L858R) (h): 84%
[5]
  Activity (control) % EGFR (T790M, L858R) (h): 9%
[6]
  Activity (control) % EGFR (T790M) (h): 45%
[7]
  Activity (control) % ALK (h): 6%
[8]
  Activity (control) % EGFR (h): 100%

## C=C(CN1CCCC1)C(=O)Nc1ccc(OC)c(Nc2ncc(Cl)c(Nc3ccccc3C(=O)C(=O)N(C)C)n2)c1 [Example 97, N-(3-(5-chloro-4-(2-(2-(dimethylamino)-2-oxoactyl)phenylamino)pyrimidin-2-ylamino)-4-methoxyphenyl)-2-(pyrrolidin-1-ylmethyl)acrylamide]
[4]
  Activity (control) % EGFR (L858R) (h): 46%
[5]
  Activity (control) % EGFR (T790M, L858R) (h): 6%
[6]
  Activity (control) % EGFR (T790M) (h): 2%
[7]
  Activity (control) % ALK (h): 23%
[8]
  Activity (control) % EGFR (h): 74%

## C=CC(=O)Nc1cc(Nc2ncc(C)c(Nc3ccccc3C(=O)C(=O)N(C)C)n2)ccc1OC [Example 101, N-(5-(4-(2-(2-(dimethylamino)-2-oxoacetyl)phenylamino)-5-methylpyrimidin-2-ylamino)-2-methoxyphenyl)acrylamide]
[4]
  Activity (control) % EGFR (L858R) (h): 94%
[5]
  Activity (control) % EGFR (T790M, L858R) (h): 41%
[6]
  Activity (control) % EGFR (T790M) (h): 83%
[7]
  Activity (control) % ALK (h): 35%
[8]
  Activity (control) % EGFR (h): 110%

## C=CC(=O)Nc1cc(Nc2ncc(Cl)c(Nc3ccccc3C(=O)C(=O)N(C)CCN(C)C)n2)ccc1OC [Example 102, N-(5-(5-chloro-4-(2-(2-((2-(dimethylamino)ethyl)(methyl)amino)-2-oxoactyl)phenylamino)pyrimidin-2-ylamino)-2-methoxyphenyl)acrylamide]
[4]
  Activity (control) % EGFR (L858R) (h): 57%
[5]
  Activity (control) % EGFR (T790M, L858R) (h): 5%
[6]
  Activity (control) % EGFR (T790M) (h): 40%
[7]
  Activity (control) % ALK (h): 5%
[8]
  Activity (control) % EGFR (h): 98%

## C=CC(=O)Nc1cc(Nc2ncc(Cl)c(Nc3ccccc3C(=O)C(=O)N(C)C)n2)ccc1N1CCN(C)CC1 [Example 111, N-(5-(5-chloro-4-(2-(2-(dimethylamino)-2-oxoactyl)phenylamino)pyrimidin-2-ylamino)-2-(4-methylpiperazin-1-yl)phenyl)acrylamide]
[4]
  Activity (control) % EGFR (L858R) (h): 76%
[5]
  Activity (control) % EGFR (T790M, L858R) (h): 11%
[6]
  Activity (control) % EGFR (T790M) (h): 59%
[7]
  Activity (control) % ALK (h): 8%
[8]
  Activity (control) % EGFR (h): 109%

## C=C(CN1CCCCC1)C(=O)Nc1cccc(Nc2ncc(Cl)c(Nc3ccccc3C(=O)C(=O)N(C)C)n2)c1 [Example 113, N-(3-(5-chloro-4-(2-(2-(dimethylamino)-2-oxoacetyl)phenylamino)pyrimidin-2-ylamino)phenyl)-2-(piperidin-1-ylmethyl)acrylamide]
[4]
  Activity (control) % EGFR (L858R) (h): 78%
[5]
  Activity (control) % EGFR (T790M, L858R) (h): 3%
[6]
  Activity (control) % EGFR (T790M) (h): 16%
[7]
  Activity (control) % ALK (h): 19%
[8]
  Activity (control) % EGFR (h): 88%

## CN(C)C/C=C/C(=O)Nc1cccc(Nc2ncc(Cl)c(Nc3ccccc3C(=O)C(=O)N(C)C)n2)c1 [Example 114, (E)-N-(3-(5-chloro-4-(2-(2-(dimethylamino)-2-oxoacetyl)phenylamino)pyrimidin-2-ylamino)phenyl)-4-(dimethylamino)but-2-enamide]
[4]
  Activity (control) % EGFR (L858R) (h): 52%
[5]
  Activity (control) % EGFR (T790M, L858R) (h): 8%
[6]
  Activity (control) % EGFR (T790M) (h): 47%
[7]
  Activity (control) % ALK (h): 10%
[8]
  Activity (control) % EGFR (h): 91%

## COc1cc(Nc2ncc(Cl)c(Nc3ccccc3C(=O)C(=O)N(C)C)n2)ccc1N1CCOCC1 [Example 117, 2-(2-(5-chloro-2-(3-methoxy-4-morpholinophenylamino)pyrimidin-4-ylamino)phenyl)-N,N-dimethyl-2-oxoacetamide]
[4]
  Activity (control) % EGFR (L858R) (h): 88%
[5]
  Activity (control) % EGFR (T790M, L858R) (h): 14%
[6]
  Activity (control) % EGFR (T790M) (h): 65%
[7]
  Activity (control) % ALK (h): 8%
[8]
  Activity (control) % EGFR (h): 113%

## CCC(=O)Nc1cc(Nc2ncc(Cl)c(Nc3ccccc3C(=O)C(=O)N(C)C)n2)ccc1OCCN(C)C [Example 120, N-(5-(5-chloro-4-(2-(2-(dimethylamino)-2-oxoactyl)phenylamino)pyrimidin-2-ylamino)-2-(2-(dimethylamino)ethoxy)phenyl)propionamide]
[4]
  Activity (control) % EGFR (L858R) (h): 76%
[5]
  Activity (control) % EGFR (T790M, L858R) (h): 14%
[6]
  Activity (control) % EGFR (T790M) (h): 62%
[7]
  Activity (control) % ALK (h): 8%
[8]
  Activity (control) % EGFR (h): 115%

## CN(C)C(=O)C(=O)c1ccccc1Nc1nc(Nc2ccc(F)c(NC(=O)CCN3CCOCC3)c2)ncc1Cl [Example 123, N-(5-(5-chloro-4-(2-(2-(dimethylamino)-2-oxoactyl)phenylamino)pyrimidin-2-ylamino)-2-fluorophenyl)-3-morpholinopropanamide]
[4]
  Activity (control) % EGFR (L858R) (h): 94%
[5]
  Activity (control) % EGFR (T790M, L858R) (h): 31%
[6]
  Activity (control) % EGFR (T790M) (h): 84%
[7]
  Activity (control) % ALK (h): 17%
[8]
  Activity (control) % EGFR (h): 115%

## C=C(CN(C)CCN(C)C)C(=O)Nc1cccc(Nc2ncc(Cl)c(Nc3ccccc3C(=O)C(=O)N(C)C)n2)c1 [Example 125, N-(3-(5-chloro-4-(2-(2-(dimethylamino)-2-oxoacetyl)phenylamino)pyrimidin-2-ylamino)phenyl)-2-(((2-(dimethylamino)ethyl)(methyl)amino)methyl)acrylamide]
[4]
  Activity (control) % EGFR (L858R) (h): 54%
[5]
  Activity (control) % EGFR (T790M, L858R) (h): 2%
[6]
  Activity (control) % EGFR (T790M) (h): 18%
[7]
  Activity (control) % ALK (h): 20%
[8]
  Activity (control) % EGFR (h): 106%

## C=C(CN1CCCCC1)C(=O)Nc1cc(Nc2ncc(Cl)c(Nc3ccccc3C(=O)C(=O)N(C)C)n2)ccc1N1CCOCC1 [Example 129, N-(5-(5-chloro-4-(2-(2-(dimethylamino)-2-oxoactyl)phenylamino)pyrimidin-2-ylamino)-2-morpholinophenyl)-2-(piperidin-1-ylmethyl)acrylamide]
[4]
  Activity (control) % EGFR (L858R) (h): 75%
[5]
  Activity (control) % EGFR (T790M, L858R) (h): 3%
[6]
  Activity (control) % EGFR (T790M) (h): 24%
[7]
  Activity (control) % ALK (h): 8%
[8]
  Activity (control) % EGFR (h): 104%

## CCN(CC)C(=O)C(=O)c1ccccc1Nc1nc(Nc2ccc(N3CCN(C)CC3)c(OC)c2)ncc1Cl [Example 130, 2-(2-(5-chloro-2-(3-methoxy-4-(4-methylpiperazin-1-yl)phenylamino)pyrimidin-4-ylamino)phenyl)-N,N-diethyl-2-oxoacetamide]
[4]
  Activity (control) % EGFR (L858R) (h): 98%
[5]
  Activity (control) % EGFR (T790M, L858R) (h): 22%
[6]
  Activity (control) % EGFR (T790M) (h): 84%
[7]
  Activity (control) % ALK (h): 13%
[8]
  Activity (control) % EGFR (h): 113%

## C=CC(=O)Nc1cc(Nc2ncc(Cl)c(Nc3ccccc3C(=O)C(=O)N(CC)CC)n2)ccc1OC [Example 132, N-(5-(5-chloro-4-(2-(2-(diethylamino)-2-oxoactyl)phenylamino)pyrimidin-2-ylamino)-2-methoxyphenyl)acrylamide]
[4]
  Activity (control) % EGFR (L858R) (h): 114%
[5]
  Activity (control) % EGFR (T790M, L858R) (h): 30%
[6]
  Activity (control) % EGFR (T790M) (h): 77%
[7]
  Activity (control) % ALK (h): 16%
[8]
  Activity (control) % EGFR (h): 103%

## C=CC(=O)Nc1ccc(N2CCN(C)CC2)c(Nc2ncc(Cl)c(Nc3ccccc3C(=O)C(=O)N(C)C)n2)c1 [Example 135, N-(3-(5-chloro-4-(2-(2-(dimethylamino)-2-oxoacetyl)phenylamino)pyrimidin-2-ylamino)-4-(4-methylpiperazin-1-yl)phenyl)acrylamide]
[4]
  Activity (control) % EGFR (L858R) (h): 103%
[5]
  Activity (control) % EGFR (T790M, L858R) (h): 95%
[6]
  Activity (control) % EGFR (T790M) (h): 96%
[7]
  Activity (control) % ALK (h): 80%
[8]
  Activity (control) % EGFR (h): 106%

## C=CC(=O)Nc1ccc(OC2CCOC2)c(Nc2ncc(Cl)c(Nc3ccccc3C(=O)C(=O)N(C)C)n2)c1 (centres unmarked) [Example 136, N-(3-(5-chloro-4-(2-(2-(dimethylamino)-2-oxoactyl)phenylamino)pyrimidin-2-ylamino)-4-(tetrahydrofuran-3-yloxy)phenyl)acrylamide]
[4]
  Activity (control) % EGFR (L858R) (h): 104%
[5]
  Activity (control) % EGFR (T790M, L858R) (h): 54%
[6]
  Activity (control) % EGFR (T790M) (h): 92%
[7]; 40 min
  remaining activity at 0.1 µM: 29%
[8]
  Activity (control) % EGFR (h): 99%

## C=CC(=O)Nc1cccc(Oc2nc(Nc3ccc(N4CCN(C)CC4)cc3OC)ncc2Cl)c1 [WZ4002, reference compound]
[1]
  IC50: > 3000 nM

## N-(5-(5-chloro-4-(2-(2-(dimethylamino)-2-oxoactyl)phenylamino)pyrimidin-2-ylamino)-2-(tetrahydrofuran-3-yloxy)phenyl)acrylamide [Example 124]
[4]
  Activity (control) % EGFR (L858R) (h): 100%
[5]
  Activity (control) % EGFR (T790M, L858R) (h): 20%
[6]
  Activity (control) % EGFR (T790M) (h): 78%
[7]
  Activity (control) % ALK (h): 16%
[8]
  Activity (control) % EGFR (h): 109%
